Laboratory results taken from patent publication US6887878B2, “KMST isoeugenol derivatives and pharmaceutical activity” (Ing-Jun Chen, priority 2003, dated 2005).

Tests used:
β2 receptors = biological target: T1, β2 receptors (Rattus norvegicus, UniProt P10608); test: [3H]CGP-12177 receptor binding in rat lung; design: species or system Wistar rat; settings: [3H]CGP-12177, rat lung
T1 construct: from tissue; host or cells: Wistar rat lung membranes
Experimental: (§1) The homogenate was pressure filtered through muslin. Filtrate was centrifuged at 1000 g for 10 min. […] Protein content was determined by Bradford's method.

rats = test: LPS-induced mortality; settings: rat, in vivo
α1-adrenergic receptor = test: noradrenaline-induced contraction in isolated rat thoracic aorta (pA2); design: species or system Wistar rat; settings: Schild plot, mean ± SEM of eight, listed as KMST
Experimental: (§2) Clonidine, noradrenaline and serotonin (10^−8˜10^−4 M) were added to the bath to induce contractions after pretreatment with KMST for 15 min.

[1] = test system: IL-1β, IL-6, IFN-γ and TNF-α; test: LPS-induced plasma cytokine immunoreactivity; assay type: in vivo, rat; settings: 1 mg kg−1, i.v., pretreatment
Experimental: (§3) In brief, Wistar rats weighing 250-300 g were anesthetized with pentobarbital sodium (50 mg kg^−1, i.p.). Following tracheal cannulation, systemic arterial BP and HR were recorded from the femoral artery by a pressure transducer (model P10EZ; Spectramed, Oxnard, Calif., U.S.A.) connected to a recorder (GOULD, Valley View, Ohio, Model P50). Body temperature was maintained at 37° C. by an electric heating pad. A femoral vein was cannulated for intravenous injection of drugs and LPS (10 mg kg^−1).
Blood was collected from venous cannula, injected into ice-cold heparinized Eppendorf tubes and centrifuged at 1500 rpm for 10 min at 4° C. Plasma supernatant was stored at −70° C. until analyzed. Solid phase enzyme immunoassay that specifically detects murine IL-1β, IL-6, IFN-γ and TNF-α was used with a detection limit of >10 pg/ml (Endogen, U.S.A). Pre-treatment with KMST and other agents was performed 15 minutes before intravenous injection of LPS. Blood was collected from venous cannula. Blood glucose was measured with a glucose test strip (Glucotide, Bayer, U.S.A) at 1, 3 and 5 hours.

α2-adrenergic receptor = test: clonidine-induced contraction in isolated rat thoracic aorta (pA2); design: species or system Wistar rat; settings: Schild plot, mean ± SEM of eight, listed as KMST
Experimental: as §2

[2] = test system: pentobarbital-anesthetized rats; test: intravenous injection in pentobarbital-anesthetized rats, BP and HR; assay type: in vivo, Wistar rat; settings: intravenous administration
Experimental: as §3

[3] = test system: lipid peroxidation in rat brain homogenate; test: lipid peroxidation initiated by Fe2+-ascorbic acid in rat brain homogenates (TBARS); assay type: biochemical
Experimental: Rat brain homogenate was made in 0.9% saline containing 10 mg tissue/ml. The rates of membrane lipid peroxidation were measured by the formation of thiobarbituric acid (TBA)-reactive substance (TBARS). Rat brain homogenates (1 ml) were incubated at 37° C. for 5 min with 10 μl of test compound or vehicle. […] After 30 min of incubation, the reaction was stopped by adding 0.1 ml of 0.2% BHT. TBA reagent was then added and the mixture was heated for 30 min in a boiling water bath. […] The amount of TBARS was quantified using the linear regression obtained from malondialdehyde (MDA) standards.

anesthetized rats [4] = test: intra-cisternal injection and NTS microinjection, BP and HR; assay type: in vivo, rat
Experimental: Intra-cisternal injections of KMST (0.3, 0.03 μmol), yohimbine [0.03 μmol), and clonidine (38 pmol), were performed in rats as described by Duan et al (1987). Briefly, rats weighing 250-300 g were anaesthetized with pentobarbital sodium (50 mg kg^−1, i.p.) and mounted in a David-Kopf stereotaxic instrument (Yeh J L. et al., Brain. Res. Bull., 30:641-648, 1993). The calvarium was exposed and a 1 mm diameter trephine hole was drilled 1.8 mm lateral to the coronary and 1.5 mm posterior to the sagittal sutures. A cannula (0.7 mm O.D.) connected to a Hamilton syringe (RN-705, 5051) by PE-50 was advanced 4.7 mm into the brain using the electrode carrier.
Rats were anesthetized and placed in a David-Kopf stereotaxic instrument. The cerebellum was exposed after removing the skin and occipital bone. The NTS coordinates were (reference to lambda) P 5-6 mm, L/R 0.5-1 mm, depth 6-7.5 mm (Wu et al., 1994). NTS injection sites were confirmed by decreasing BP and HR following micro-injection of 1% L-glutamate. […] Pre-treatment with clonidine was performed 15 min before administration of test agents. At the end of experiments, the animals were sacrificed. The brain was removed and sectioned for histological confirmation of the drug application site.

5-HT1A = biological target: T2, 5-HT1A (Rattus norvegicus, UniProt P19327); test: [3H]WAY100635 receptor binding; settings: read-out: Ki 5-HT1A; [3H]WAY100635
T2 sequence (P19327 1-422): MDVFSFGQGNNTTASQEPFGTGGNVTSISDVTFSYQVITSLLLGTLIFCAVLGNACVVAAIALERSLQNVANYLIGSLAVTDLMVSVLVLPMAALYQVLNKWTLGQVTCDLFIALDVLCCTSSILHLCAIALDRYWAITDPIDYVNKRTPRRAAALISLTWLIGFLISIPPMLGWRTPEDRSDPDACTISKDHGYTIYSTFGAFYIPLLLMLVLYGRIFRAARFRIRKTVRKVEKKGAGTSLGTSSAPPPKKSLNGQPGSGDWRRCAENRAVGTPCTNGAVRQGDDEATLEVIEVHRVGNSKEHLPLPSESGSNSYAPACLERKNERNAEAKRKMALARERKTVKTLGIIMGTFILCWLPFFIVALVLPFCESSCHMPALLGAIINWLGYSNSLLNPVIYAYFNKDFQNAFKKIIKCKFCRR

β1 receptors = biological target: T3, β1 receptors (Rattus norvegicus, UniProt P18090); test: [3H]CGP-12177 receptor binding in rat ventricle; design: species or system Wistar rat; settings: [3H]CGP-12177, rat ventricle
T3 construct: from tissue; host or cells: Wistar rat heart (ventricle) membranes
Experimental: as §1

anesthetized rats [5] = test: LPS-induced hypotension; assay type: in vivo, Wistar rat; settings: pretreatment, intravenous LPS
Experimental: as §3

T1 sequence (P10608 whole entry): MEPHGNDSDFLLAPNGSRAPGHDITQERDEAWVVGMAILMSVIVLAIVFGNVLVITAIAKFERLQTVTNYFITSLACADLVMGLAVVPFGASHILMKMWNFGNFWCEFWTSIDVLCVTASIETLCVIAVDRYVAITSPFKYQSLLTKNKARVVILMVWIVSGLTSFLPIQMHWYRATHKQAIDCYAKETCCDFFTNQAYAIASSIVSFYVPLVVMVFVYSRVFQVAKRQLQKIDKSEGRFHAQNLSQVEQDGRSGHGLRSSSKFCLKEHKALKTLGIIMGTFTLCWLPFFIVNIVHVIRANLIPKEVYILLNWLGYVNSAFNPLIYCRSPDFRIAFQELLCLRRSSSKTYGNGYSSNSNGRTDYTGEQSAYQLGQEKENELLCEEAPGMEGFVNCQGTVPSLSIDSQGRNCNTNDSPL
T3 sequence (P18090 whole entry): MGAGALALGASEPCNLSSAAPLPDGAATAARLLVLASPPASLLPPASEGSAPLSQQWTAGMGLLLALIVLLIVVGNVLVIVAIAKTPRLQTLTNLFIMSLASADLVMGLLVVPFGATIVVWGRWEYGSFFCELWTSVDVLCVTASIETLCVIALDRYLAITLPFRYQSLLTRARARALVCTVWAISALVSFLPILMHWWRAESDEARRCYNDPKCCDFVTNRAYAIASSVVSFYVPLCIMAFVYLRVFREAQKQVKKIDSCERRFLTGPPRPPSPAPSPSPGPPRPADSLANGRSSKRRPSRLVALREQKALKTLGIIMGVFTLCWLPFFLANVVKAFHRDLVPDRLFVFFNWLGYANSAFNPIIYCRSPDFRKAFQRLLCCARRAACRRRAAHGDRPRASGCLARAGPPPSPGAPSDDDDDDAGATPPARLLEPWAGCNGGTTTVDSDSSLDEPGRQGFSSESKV

CC=Cc1ccc(OCC(O)CN2CCN(c3cccc(Cl)c3)CC2)c(OC)c1 (stereo not shown) [Compound 1]
Ki (β2 receptors): > 10000 nM
LPS-induced death (rats): did not prevent
survival time after LPS (rats): did prolong survival time
α1 pA2 value (α1-adrenergic receptor): 7.97±0.39
LPS-induced elevations of IL-1β, IL-6, IFN-γ and TNF-α levels [1]: inhibited
α2 pA2 value (α2-adrenergic receptor): 7.40±0.38
mean BP and HR [2]: dose-dependent decrease
phenylephrine- and isoprenaline-induced changes in BP and HR [2]: inhibited
potency of KMST relative to ascorbic acid, lipid peroxidation ([3]; rat brain homogenate): ~3 times
potency of KMST relative to trazodone, lipid peroxidation ([3]; rat brain homogenate): ~30 times
potency of KMST relative to yohimbine, lipid peroxidation ([3]; rat brain homogenate): approximately 5 times
IC50 ([3]; rat brain homogenates, listed as KMST, read-out: IC50 inhibiting lipid peroxidation initiated by Fe2+-ascorbic acid): 2680 nM
BP and HR after intra-cisternal injection and NTS microinjection (anesthetized rats [4]; central administration): increased BP and HR
clonidine-induced hypotension and bradycardia (anesthetized rats [4]; high dose (0.3 μmol)): reduced both
clonidine-induced bradycardia (anesthetized rats [4]; low dose (0.03 μmol)): did not inhibit
clonidine-induced hypotension (anesthetized rats [4]; low dose (0.03 μmol)): reduced
Ki (5-HT1A): > 10000 nM
Ki (β1 receptors): 72.8 nM
aortic hyporeactivity and second prolonged hypotensive reaction induced by LPS (anesthetized rats [5]): inhibited
